Measured values reported in article PMC8011931, “Identification, Structure–Activity Relationship, and Biological Characterization of 2,3,4,5-Tetrahydro-1H-pyrido[4,3-b]indoles as a Novel Class of CFTR Potentiators” (Journal of Medicinal Chemistry, 2020).

Molecular target: F508del-CFTR (Homo sapiens, UniProt P13569, DEL508-508)
Assay: HS-YFP-based assay for CFTR activity on F508del-CFTR FRT cells rescued at 32 °C for 24 h
Type: cell-based
Parameters: expressed in transfected cells; key to Emax: fold increase in F508del-CFTR rescue relative to hit 3 (normalized)
Settings: for EC50: F508del-CFTR FRT cells rescued at 32 °C for 24 h, plus forskolin; for EC50 / Emax (FRT F508del-CFTR): mean ± SD (n = 3–6), n.a.: not active (up to 20 μM); for Emax: supplementary csv, same data as Tables 1–3; for Emax (FRT F508del-CFTR): normalized for the activity of analogue 3
Description: The chemical library was screened in duplicate on a Fischer rat thyroid (FRT) cell line, stably coexpressing F508del-CFTR and the halide-sensitive yellow fluorescent protein, HS-YFP.[23],[34],[35] To overcome the F508del trafficking defect, cells were initially incubated for 24 h at 32 °C and then acutely treated (15–30 min) with a single compound (5 μM) in combination with forskolin (10 μM). After stimulation, the F508del-CFTR activity in the plasma membrane was calculated by measuring the rate of fluorescence quenching arising from iodide influx.[34] This activity was compared to that of wells containing forskolin alone (negative control) or forskolin plus VX-770 (1 μM, as a positive control) (Figure 2A). Analysis of screening performance with the Z′ method gave a score of 0.6, which can be considered optimal for this type of assay. The activity scores for each compound were then plotted as an ordered distribution (Figure 2B). All compounds whose average activity calculated from the two rounds of screening was greater than 185% with respect to the negative control (i.e., forskolin alone) were considered as primary hits.
The primary hits were confirmed by testing them at different concentrations, in order to extrapolate the dose–response relationship. First, we focused on the F508del mutant. The compounds were tested in the low micromolar range, in the presence of forskolin (10 μM), on F508del-CFTR FRT cells following rescue of the trafficking defect by low-temperature incubation, as done for the primary screening. The most interesting hits were subsequently tested for their ability to overcome the more severe gating defect of pure class III mutant using FRT cells stably expressing G551D-CFTR (Figure 3B).
The role of the heteroaryl group (A) acylating the position 2 of the tetrahydro-γ-carboline was initially explored by modifying the substituent on the pyrazolyl residue and replacing the pyrazole with other rings, while keeping the 8-methoxy carboline moiety unmodified. The activity of each compound is described in terms of normalized maximal efficacy (Emax), the maximum fold increase in the rescue of F508del-CFTR activity with respect to hit 3, and potency (EC50), the concentration producing half-maximal efficacy.
FRT cells stably expressing mutant F508del-CFTR or G551D-CFTR and the halide-sensitive yellow fluorescent protein (HS-YFP) YFP-H148Q/I152L and CFBE41o-cells stably expressing F508del-CFTR and HS-YFP were generated as previously described.[21],[57] FRT cells were cultured using the Coon’s modification of Ham’s F12 medium, while CFBE41o-cells were cultured in the modified Eagle’s medium. Media were supplemented with 10% fetal calf serum, 2 mM L-glutamine, 100 U/mL of penicillin, and […] of streptomycin. For functional assays of CFTR activity based on the HS-YFP assays, CFBE41o- or FRT cells were plated (50,000 cells/well) on clear-bottom 96-well black microplates (Corning Life Sciences, Acton, MA). The following day, cells were assayed. In the case of FRT cells expressing F508del-CFTR, plates were kept at 32 °C (or treated with correctors at 37 °C where indicated) for an additional 24 h to rescue the mutant trafficking defect, before assays.
Prior assay, cells were washed with phosphate-buffered saline (PBS) containing (in mM) 137 NaCl, 2.7 KCl, 8.1 Na2HPO4, 1.5 KH2PO4, 1 CaCl2, and 0.5 MgCl2. Cells were then incubated for 25 min with 60 μL of PBS plus forskolin (20 μM) and test compounds (at the desired concentration) to stimulate mutant CFTR. Cells were then transferred to microplate readers (FluoStar Optima; BMG Labtech, Offenburg, Germany) for CFTR activity determination. The plate readers were equipped with high-quality excitation (HQ500/20X: 500 ± 10 nm) and emission (HQ535/30M: 535 ± 15 nm) filters for YFP (Chroma Technology). […]

F508del-CFTR, sequence (P13569 with tags, fused parts or gaps DEL508-508): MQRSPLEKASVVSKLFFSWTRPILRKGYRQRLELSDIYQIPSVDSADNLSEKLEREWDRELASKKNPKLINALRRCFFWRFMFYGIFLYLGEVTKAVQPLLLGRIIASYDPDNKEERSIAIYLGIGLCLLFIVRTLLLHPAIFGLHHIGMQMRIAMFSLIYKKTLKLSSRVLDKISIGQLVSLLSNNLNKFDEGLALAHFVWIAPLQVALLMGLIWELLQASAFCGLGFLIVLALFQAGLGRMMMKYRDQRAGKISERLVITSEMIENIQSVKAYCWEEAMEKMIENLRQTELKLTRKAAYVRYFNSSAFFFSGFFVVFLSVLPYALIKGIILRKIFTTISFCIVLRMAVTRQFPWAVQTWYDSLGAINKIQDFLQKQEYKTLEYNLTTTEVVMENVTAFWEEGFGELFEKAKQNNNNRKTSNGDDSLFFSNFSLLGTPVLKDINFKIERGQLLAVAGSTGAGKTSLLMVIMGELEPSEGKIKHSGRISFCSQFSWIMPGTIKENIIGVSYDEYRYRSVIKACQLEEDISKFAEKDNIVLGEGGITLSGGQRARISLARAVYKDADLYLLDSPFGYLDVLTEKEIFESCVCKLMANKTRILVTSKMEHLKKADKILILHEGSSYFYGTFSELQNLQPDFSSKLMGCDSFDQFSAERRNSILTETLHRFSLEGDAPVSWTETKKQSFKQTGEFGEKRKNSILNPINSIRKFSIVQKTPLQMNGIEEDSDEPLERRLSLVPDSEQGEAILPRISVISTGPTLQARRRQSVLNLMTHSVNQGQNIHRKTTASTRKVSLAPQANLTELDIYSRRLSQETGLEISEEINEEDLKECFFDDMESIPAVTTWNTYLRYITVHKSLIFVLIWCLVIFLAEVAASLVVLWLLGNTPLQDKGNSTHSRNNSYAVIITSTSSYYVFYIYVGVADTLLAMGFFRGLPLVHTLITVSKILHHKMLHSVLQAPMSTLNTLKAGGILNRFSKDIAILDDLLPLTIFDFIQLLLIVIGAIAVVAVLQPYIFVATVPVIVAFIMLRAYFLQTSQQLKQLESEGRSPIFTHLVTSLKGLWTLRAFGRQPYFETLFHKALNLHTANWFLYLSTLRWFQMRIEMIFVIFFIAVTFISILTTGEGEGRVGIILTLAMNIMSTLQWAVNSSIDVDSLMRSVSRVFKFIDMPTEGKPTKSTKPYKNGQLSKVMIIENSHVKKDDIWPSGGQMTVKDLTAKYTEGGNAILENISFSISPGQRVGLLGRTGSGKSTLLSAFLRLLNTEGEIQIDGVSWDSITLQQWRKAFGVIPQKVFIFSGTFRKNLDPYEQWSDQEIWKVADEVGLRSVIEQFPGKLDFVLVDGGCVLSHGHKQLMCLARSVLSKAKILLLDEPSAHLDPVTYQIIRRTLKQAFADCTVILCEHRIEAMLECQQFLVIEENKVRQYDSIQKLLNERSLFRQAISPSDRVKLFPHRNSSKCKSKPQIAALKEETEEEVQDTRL

SMILES | EC50 | Emax | Emax (FRT F508del-CFTR) | fold drop in potency with respect to 20 (EC50, F508del-CFTR FRT cells) | fold decrease (drop) in potency with respect to 30 (EC50, F508del-CFTR FRT cells)
Cc1cccc2c3c([nH]c12)CCN(C(=O)c1cc(C(F)(F)F)[nH]n1)C3 [Compound 17, (6-Methyl-1,3,4,5-tetrahydro-2H-pyrido[4,3-b]indol-2-yl)-(5-(trifluoromethyl)-1H-pyrazol-3-yl)methanone] | 1.14 ± 0.13 µM | 1.0 ± 0.08 | – | – | –
CC(C)c1ccc2[nH]c3c(c2c1)CN(C(=O)c1cc(C(F)(F)F)[nH]n1)CC3 [Compound 18, (8-Isopropyl-1,3,4,5-tetrahydro-2H-pyrido[4,3-b]indol-2-yl)-(5-(trifluoromethyl)-1H-pyrazol-3-yl)methanone] | 1.4 ± 0.9 µM | 0.69 ± 0.09 | – | – | –
O=C(c1cc(C(F)(F)F)[nH]n1)N1CCc2[nH]c3ccc(F)cc3c2C1 [Compound 19, (8-Fluoro-1,3,4,5-tetrahydro-2H-pyrido[4,3-b]indol-2-yl)(5-(trifluoromethyl)-1H-pyrazol-3-yl)methanone] | 0.48 ± 0.05 µM | 0.97 ± 0.11 | – | – | –
O=C(c1cc(C(F)(F)F)[nH]n1)N1CCc2[nH]c3ccc(C(F)(F)F)cc3c2C1 [Compound 21, (8-(Trifluoromethyl)-1,3,4,5-tetrahydro-2H-pyrido[4,3-b]indol-2-yl)-(5-(trifluoromethyl)-1H-pyrazol-3-yl)methanone] | 0.44 ± 0.06 µM | 0.95 ± 0.04 | – | – | –
O=C(c1cc(C(F)(F)F)[nH]n1)N1CCc2[nH]c3ccc(OC(F)(F)F)cc3c2C1 [Compound 22, (8-(Trifluoromethoxy)-1,3,4,5-tetrahydro-2H-pyrido[4,3-b]indol-2-yl)-(5-(trifluoromethyl)-1H-pyrazol-3-yl)methanone] | 0.16 ± 0.03 µM | 0.89 ± 0.03 | 0.89 ± 0.03 | – | –
N#Cc1ccc2[nH]c3c(c2c1)CN(C(=O)c1cc(C(F)(F)F)[nH]n1)CC3 [Compound 23, 2-(5-(Trifluoromethyl)-1H-pyrazole-3-carbonyl)-2,3,4,5-tetrahydro-1H-pyrido[4,3-b]indole-8-carbonitrile] | 1.9 ± 0.2 µM | 0.75 ± 0.11 | – | – | –
CS(=O)(=O)c1ccc2[nH]c3c(c2c1)CN(C(=O)c1cc(C(F)(F)F)[nH]n1)CC3 [Compound 24, (8-(Methylsulfonyl)-1,3,4,5-tetrahydro-2H-pyrido[4,3-b]indol-2-yl)-(5-(trifluoromethyl)-1H-pyrazol-3-yl)methanone] | 10.5 ± 2.2 µM | 0.28 ± 0.04 | – | – | –
Cc1cc(F)c2[nH]c3c(c2c1)CN(C(=O)c1cc(C(F)(F)F)[nH]n1)CC3 [Compound 26, (6-Fluoro-8-methyl-1,3,4,5-tetrahydro-2H-pyrido[4,3-b]indol-2-yl)-(5-(trifluoromethyl)-1H-pyrazol-3-yl)methanone] | 0.23 ± 0.08 µM | 0.70 ± 0.02 | – | – | –
O=C(c1cc(C(F)(F)F)[nH]n1)N1CCc2[nH]c3c(F)cc(F)cc3c2C1 [Compound 27, (6,8-Difluoro-1,3,4,5-tetrahydro-2H-pyrido[4,3-b]indol-2-yl)-(5-(trifluoromethyl)-1H-pyrazol-3-yl)methanone] | 0.15 ± 0.07 µM | 0.66 ± 0.12 | – | – | –
O=C(c1cc(C(F)(F)F)[nH]n1)N1CCc2[nH]c3c(F)cc(C(F)(F)F)cc3c2C1 [Compound 28, (6-Fluoro-8-trifluoromethyl-1,3,4,5-tetrahydro-2H-pyrido[4,3-b]indol-2-yl)-(5-(trifluoromethyl)-1H-pyrazol-3-yl)methanone] | 0.57 ± 0.14 µM | 0.94 ± 0.13 | – | 6 fold | –
Cc1ccc(F)c2c3c([nH]c12)CCN(C(=O)c1cc(C(F)(F)F)[nH]n1)C3 [Compound 31, (9-Fluoro-6-methyl-1,3,4,5-tetrahydro-2H-pyrido[4,3-b]indol-2-yl)(5-(trifluoromethyl)-1H-pyrazol-3-yl)methanone] | 0.94 ± 0.25 µM | 0.65 ± 0.08 | – | – | more than 15 fold
Cc1ccc(F)c2[nH]c3c(c12)CN(C(=O)c1cc(C(F)(F)F)[nH]n1)C(C)(C)C3 [Compound 34, (6-Fluoro-3,3,9-trimethyl-1,3,4,5-tetrahydro-2H-pyrido[4,3-b]indol-2-yl)-(5-(trifluoromethyl)-1H-pyrazol-3-yl)methanone] | 1.91 ± 0.26 µM | 0.79 ± 0.13 | 0.79 ± 0.13 | – | –
Cc1ccc(F)c2[nH]c3c(c12)CCN(C(=O)c1cc(C(F)(F)F)[nH]n1)CC3 [Compound 38, (7-Fluoro-10-methyl-1,4,5,6-tetrahydroazepino[4,5-b]indol-3(2H)-yl)-(5-(trifluoromethyl)-1H-pyrazol-3-yl)methanone] | 2.3 ± 0.3 µM | 0.93 ± 0.16 | – | – | 38 fold
Cc1ccc(F)c2[nH]c3c(c12)CN(C(=O)c1cc(C(F)(F)F)[nH]n1)[C@@H](C)C3 [Compound 40, (S)-(6-Fluoro-3,9-dimethyl-1,3,4,5-tetrahydro-2H-pyrido[4,3-b]indol-2-yl)-(5-(trifluoromethyl)-1H-pyrazol-3-yl)methanone] | 1.1 ± 0.2 µM | 1.31 ± 0.18 | 1.31 ± 0.18 | – | –
